Reference: patent US7119111B2, “2-oxo-1,3,4-trihydroquinazolinyl derivatives and methods of use” (Amgen, Inc., priority 2002, dated 2006)
Where a name gives a salt, the structure may show the parent alone.

Columns and labels:
[1] = Cell Proliferation Assay (BrdU incorporation); assay type: cell-based; settings: Homo sapiens; 48 h incubation, BrdU labeling; cell line not specified; read-out: inhibited cell proliferation IC50
Method: Cell proliferation was measured using a calorimetric immunoassay (B/M Roche #164 7229), based on the measurement of pyrimidine analog BrdU incorporation during DNA synthesis in proliferating cells. Cells, e.g., human PC-3 prostate carconima cells, huFSF normal human foreskin fibroblast cells, HCT 116 human colon carcinoma cells or HT 29 human colon carcinoma cells, were cultured in a 96-well plate for 24 h, until a cell count of 3×10^3 to 6×10^3 cells per well in duplicate wells were achieved, in a well volume of 200 μl. The media was changed and 1 μl of 200× control inhibitors or compounds was added to each well. Cells are incubated for 48 h at 37° C. The cells were labeled with BrdU for 4 h at 37° C. The labeling medium was removed and in one step, the cells were fixed and the DNA was denatured (30 min at RT). Anti-BrdU-POD antibody was added to bind to the BrdU incorporated in newly synthesized cellular DNA (60–90 min at RT). The cells were washed 3×with washing buffer, substrate (100 μl) was added and the cells were incubated for 10 min at RT. The substrate reaction was stopped by adding 25 μl of 1M H2SO4. The amount of BrdU incorporated was quantified by measuring the absorbance at 450 nm using ELISA reader. IC50's were calculated using GraFit (Sigma).

| Compound | melting point [°C] | IC50 [1] [µM] |
| --- | --- | --- |
| O=C1Nc2ccccc2CN1c1nc(-c2ccc(Cl)c(Cl)c2)cs1 [Example 44, 3-[4-(3,4-Dichlorophenyl)-1,3-thiazol-2-yl]-1,3,4-trihydroquinazolin-2-one] | 295 to 299 | – |
| O=C1Nc2cccc(Br)c2CN1c1csc(-c2ccncc2)n1 [Example 6, 5-Bromo-3-(2-(4-pyridyl)(1,3-thiazol-4-yl))-1,3,4-trihydroquinazolin-2-one] | 283 to 284 | – |
| O=C1Nc2ccc(N3CCCCC3)cc2CN1c1nc(-c2ccncc2)cs1 [Example 36, 6-Piperidyl-3-(4-(4-pyridyl)(1,3-thiazol-2-yl))-1,3,4-trihydroquinazolin-2-one] | > 272 | – |
| CN1CCC[C@H]1COc1cccc2c1CN(c1nc(-c3ccncc3)ns1)C(=O)N2 [Example 55, 5-[((2S)-1-Methylpyrrolidin-2-yl)methoxy]-3-(3-(4-pyridyl)-(1,2,4-thiadiazol-5-yl))-1,3,4-trihydroquinazolin-2-one] | > 250 | – |
| O=C1Nc2cc(CN3CCOCC3)ccc2CN1c1csc(-c2ccncc2)n1 [Example 27, 7-(Morpholin-4-ylmethyl)-3-(2-(4-pyridyl)(1,3-thiazol-4-yl))-1,3,4-trihydroquinazolin-2-one] | 249 to 250 | – |
| O=C1Nc2cc(C(F)(F)F)ccc2CN1c1nc(-c2ccncc2)ns1 [Example 52, 3-(3-(4-Pyridyl)(1,2,4-thiadiazol-5-yl))-7-(trifluoromethyl)-1,3,4-trihydroquinazolin-2-one] | > 300 | – |
| O=C1Nc2cccc(F)c2CN1c1csc(-c2ccncc2)n1 [Example 13, 5-Fluoro-3-(2-(4-pyridyl)(1,3-thiazol-4-yl))-1,3,4-trihydroquinazolin-2-one] | 247 to 249 | – |
| O=C1Nc2ccccc2CN1c1nc(-c2ccncc2)ns1 [Example 46, 3-(3-(4-Pyridyl)-1,2,4-thiadiazol-5-yl)-1,3,4-trihydroquinazolin-2-one] | > 290 | – |
| Nc1ccc2c(c1)NC(=O)N(c1csc(-c3ccncc3)n1)C2 [Example 28, 7-Amino-3-(2-(4-pyridyl)(1,3-thiazol-4-yl))-1,3,4-trihydroquinazolin-2-one] | – | < 5 |
| COc1ccc(-c2csc(N3Cc4ccccc4NC3=O)n2)c(OC)c1 [Example 41, 3-[4-(2,4-Dimethoxyphenyl)-1,3-thiazol-2-yl]-1,3,4-trihydroquinazolin-2-one] | 283 to 288 | – |
| O=C1Nc2cccc(CN3CCCCC3)c2CN1c1csc(-c2ccncc2)n1 (as salt: HCl) [Example 15, 5-(Piperidylmethyl)-3-(2-(4-pyridyl)(1,3-thiazol-4-yl))-1,3,4-trihydroquinazolin-2-one] | 278 to 280 | – |
| CN1CCN(c2ccc3c(c2)CN(c2nc(-c4ccncc4)cs2)C(=O)N3)CC1 [Example 38, 6-(4-Methylpiperazinyl)-3-(4-(4-pyridyl)(1,3-thiazol-2-yl))-1,3,4-trihydroquinazolin-2-one] | 301 to 304 | – |
| CCc1cc(-c2nc(N3Cc4ccccc4NC3=O)cs2)ccn1 [Example 35, 3-[2-(2-Ethyl-4-pyridyl)-1,3-thiazol-4-yl]-1,3,4-trihydroquinazolin-2-one] | 239 to 240 | – |
| O=C1Nc2ccccc2CN1c1ccc(-c2ccncc2)s1 [Example 47, 3-(5-(4-Pyridyl)-2-thienyl)-1,3,4-trihydroquinazolin-2-one] | 301 to 305 | – |
| O=C1Nc2ccc(F)cc2CN1c1csc(-c2ccncc2)n1 [Example 10, 6-Fluoro-3-(2-(4-pyridyl)(1,3-thiazol-4-yl))-1,3,4-trihydroquinazolin-2-one] | 290 to 291 | – |
| O=C1Nc2ccccc2CN1c1nc(-c2ccc(O)cc2)cs1 [Example 49, 3-[4-(4-Hydroxyphenyl)-1,3-thiazol-2-yl]-1,3,4-trihydroquinazolin-2-one] | 288 to 291 | – |
| Cc1ccc(Oc2ccc3c(c2)CN(c2nc(-c4ccncc4)cs2)C(=O)N3)c(C)c1 [Example 40, 6-(2,4-Dimethylphenoxy)-3-(4-(4-pyridyl)(1,3-thiazol-2-yl))-1,3,4-trihydroquinazolin-2-one] | 254 to 258 | – |
| CN1CCC[C@H]1COc1ccc2c(c1)CN(c1nc(-c3ccncc3)ns1)C(=O)N2 [Example 54, 6-[((2S)-1-Methylpyrrolidin-2-yl)methoxy]-3-(3-(4-pyridyl)-(1,2,4-thiadiazol-5-yl))-1,3,4-trihydroquinazolin-2-one] | > 275 | – |
| O=C1Nc2ccccc2CN1c1nc(-c2ccccn2)cs1 [Example 17, 3-(4-(2-Pyridyl)-1,3-thiazol-2-yl)-1,3,4-trihydroquinazolin-2-one] | > 275 | – |

| Compound | melting point [°C] | IC50 [1] [µM] |
| --- | --- | --- |
| O=C1Nc2cc(F)ccc2CN1c1csc(-c2ccncc2)n1 [Example 9, 7-Fluoro-3-(2-(4-pyridyl)(1,3-thiazol-4-yl))-1,3,4-trihydroquinazolin-2-one] | 285 to 286 | – |
| COc1ccc(-c2csc(N3Cc4ccccc4NC3=O)n2)cc1 [Example 48, 3-[4-(4-Methoxyphenyl)-1,3-thiazol-2-yl]-1,3,4-trihydroquinazolin-2-one] | 275 to 278 | – |
| O=C1Nc2cccc(N3CCOCC3)c2CN1c1nc(-c2ccncc2)ns1 [Example 53, 5-Morpholin-4-yl-3-(3-(4-pyridyl)(1,2,4-thiadiazol-5-yl))-1,3,4-trihydroquinazolin-2-one] | > 300 | – |
| O=C1Nc2cc(F)c(N3CCCCC3)cc2CN1c1csc(-c2ccncc2)n1 [Example 56, 7-Fluoro-6-piperidyl-3-(2-(4-pyridyl)(1,3-thiazol-4-yl))-1,3,4-trihydroquinazolin-2-one] | 312 to 314 | – |
| CN(C)CCN(C)c1ccc2c(c1)CN(c1nc(-c3ccncc3)cs1)C(=O)N2 [Example 37, 6-{[2-(Dimethylamino)ethyl](methyl)amino}-3-(4-(4-pyridyl)(1,3-thiazol-2-yl))-1,3,4-trihydroquinazolin-2-one] | 254 to 257 | – |
| O=C1Nc2cccc(Cl)c2CN1c1nc(-c2ccncc2)cs1 [Example 43, 5-Chloro-3-(4-(4-pyridyl)(1,3-thiazol-2-yl))-1,3,4-trihydroquinazolin-2-one] | > 300 | – |
| O=C1Nc2ccccc2CN1c1nc(-c2ccc(F)c(F)c2)cs1 [Example 39, 3-[4-(3,4-Difluorophenyl)-1,3-thiazol-2-yl]-1,3,4-trihydroquinazolin-2-one] | 289 to 293 | – |
| O=C1Nc2cccc(OCCN3CCOCC3)c2CN1c1nc(-c2ccncc2)ns1 (as salt: salt) [Example 51, 5-(2-Morpholin-4-ylethoxy)-3-(3-(4-pyridyl)(1,2,4-thiadiazol-5-yl))-1,3,4-trihydroquinazolin-2-one] | 259 to 260 | – |
| O=C1Nc2ccccc2CN1c1nc(-c2ccncc2)cs1 [Example 16, 3-(4-(4-Pyridyl)-1,3-thiazol-2-yl)-1,3,4-trihydroquinazolin-2-one] | > 267 | – |
| O=C1Nc2cccc(F)c2CN1c1nc(-c2ccncc2)cs1 [Example 45, 5-Fluoro-3-(4-(4-pyridyl)(1,3-thiazol-2-yl))-1,3,4-trihydroquinazolin-2-one] | > 300 | – |
| O=C1Nc2cc(-c3ccccc3)ccc2CN1c1csc(-c2ccncc2)n1 [Example 12, 7-Phenyl-3-(2-(4-pyridyl)(1,3-thiazol-4-yl))-1,3,4-trihydroquinazolin-2-one] | 248 to 250 | – |
| O=C1Nc2ccccc2CN1c1nc(-c2cccnc2)cs1 [Example 18, 3-(4-(3-Pyridyl)-1,3-thiazol-2-yl)-1,3,4-trihydroquinazolin-2-one] | 269 to 272 | – |
| O=C1Nc2cccc(CN3CCCCCC3)c2CN1c1csc(-c2ccncc2)n1 [Example 29, 5-(Azaperhydroepinylmethyl)-3-(2-(4-pyridyl)(1,3-thiazol-4-yl))-1,3,4-trihydroquinazolin-2-one] | 202 to 204 | – |
| COc1cccc(-c2cccc3c2CN(c2csc(-c4ccncc4)n2)C(=O)N3)c1 [Example 57, 5-(3-Methoxyphenyl)-3-(2-(4-pyridyl)(1,3-thiazol-4-yl))-1,3,4-trihydroquinazolin-2-one] | 250 to 252 | – |
| O=C1Nc2cccc(CN3CCOCC3)c2CN1c1csc(-c2ccncc2)n1 (as salt: HCl) [Example 14, 5-(Morpholin-4-ylmethyl)-3-(2-(4-pyridyl)(1,3-thiazol-4-yl))-1,3,4-trihydroquinazolin-2-one] | 261 to 263 | – |
| O=C1Nc2cccc(Cl)c2CN1c1csc(-c2ccncc2)n1 [Example 11, 5-Chloro-3-(2-(4-pyridyl)(1,3-thiazol-4-yl))-1,3,4-trihydroquinazolin-2-one] | 292 to 293 | – |
| COc1cccc(-c2ccc3c(c2)NC(=O)N(c2csc(-c4ccncc4)n2)C3)c1 [Example 30, 7-(3-Methoxyphenyl)-3-(2-(4-pyridyl)(1,3-thiazol-4-yl))-1,3,4-trihydroquinazolin-2-one] | 256 to 258 | – |
| Cc1ccc2c(c1)CN(c1csc(-c3ccncc3)n1)C(=O)N2 [Example 7, 6-Methyl-3-(2-(4-pyridyl)(1,3-thiazol-4-yl))-1,3,4-trihydroquinazolin-2-one] | 259 to 261 | – |
